Measured values taken from article PMC5622025, “Synthesis and biological evaluation of tricyclic matrinic derivatives as a class of novel anti-HCV agents” (Chemistry Central Journal, 2017).
Structures can show the parent of a compound that is named as a salt. Where two headings read alike, the source gives them in different places.

Tests used:
HCV = test: Anti-HCV effect in vitro, intracellular HCV RNA by real-time RT-PCR in infected Huh7.5 cells; assay type: cell-based, hepatitis C virus; details: for EC50: read-out: EC50 (concentration required to inhibit HCV growth by 50%); for SI (ratio of CC50 to EC50): Huh7.5 cells
Method: (§1) All the target compounds were evaluated for their anti-HCV activities (EC50) and cytotoxicities (CC50) in human Huh7.5 cells using specific real-time RT-PCR assay, as described earlier. As an important indicator, the selectivity index (SI) was calculated as a ratio of CC50 to EC50. Anti-HCV ability of a given compound was estimated by combining its EC50 with SI values.
(§2) Human liver cell line Huh7.5 cells (kindly provided by Vertex Pharmaceuticals, Inc., Boston, MA) were cultured in Dulbecco’s modified eagle medium (DMEM) supplemented with 10% inactivated fetal bovine serum and 1% penicillin–streptomycin (invitrogen). Cells were digested with 0.05% trypsin-ethylene diamine tetraacetic acid (EDTA) and split twice a week.
Huh7.5 cells were seeded into 96-well or 6-well plates (Costar) at a density of 3 × 10^4 cells cm^−2. After 24 h incubation, the cells were infected with HCV viral stock (45 IU cell^−1) and simultaneously treated with the test compounds at various concentrations or solvent as control. The culture medium was removed after 72 h inoculation, the intracellular total RNA (in 96-well plates) was extracted with RNeasy Mini Kit (Qiagen), and total intracellular proteins (in 6-well plates) were extracted with Cyto-Buster Protein Extraction Reagent added with 1 mM protease inhibitor cocktail. The intracellular HCV RNA was quantified with a real time one-step reverse-transcription polymerase chain reaction (RT-PCR).

Huh7.5 cells = test: Cytotoxicity assay (MTT) in Huh7.5 cells; assay type: cell-based, human
Method: as §1, §2
(§3) Huh7.5 cells were seeded into 96-well plates (Costar) at a density of 3 × 10^4 cells cm^−2. After 24 h incubation, fresh culture medium containing test compounds at various concentrations were added. 72 h later, cytotoxicity was evaluated with 3-(4,5-dimethylthiazol-2-yl)-2,5-diphenyltetrazolium bromide (MTT).

[1] = Cytotoxicity assay (MTT) in Huh7.5 cells; assay type: cell-based, human; details: human
Method: as §1, §2, §3

[2] = HCV-infected Huh7.5 cells, 72 h, real-time RT-PCR
[3] = Huh7.5 cells, 72 h, MTT, read-out: CC50 (cytotoxic concentration required to inhibit Huh7.5 cell growth by 50%)
[4] = Hepatitis C virus, Huh7.5, 72 h

SMILES	EC50 (HCV; [2])	SI (ratio of CC50 to EC50) (HCV)	CC50 (Huh7.5 cells)	melting point	CC50 (Huh7.5 cells; [3])	EC50 (HCV; [4])	CC50 at 72 h [1]	CC50 at 72 h [1, 3]
CCCCCCCN1C[C@@H]2CCCN3CCC[C@@H]([C@H]23)[C@H]1CCCCO [3c]	1.01 ± 0.55 µM	32.9	33.3 ± 6.49 µM					
O=C(CN1C[C@@H]2CCCN3CCC[C@@H]([C@H]23)[C@H]1CCCCO)Nc1ccccc1 [7 h, 12N-(2-Oxo-2-(phenylamino)ethyl)matrinol]	46.7 ± 41 µM	> 10.7	> 500 µM					
Cl.Cl.OCC/C=C\C1C2CCCN3CCCC(CN1Cc1ccc(F)cc1)C23 (stereo not drawn) [14b, (Z)-12N-4-(Fluorobenzyl)-Δ^βγ-matrinic crotonol dihydrochloride]	13.6 ± 2.63 µM	11.5	156 ± 65.8 µM					
COC(=O)CCC[C@@H]1[C@H]2CCCN3CCC[C@@H](CN1Cc1ccncc1)[C@@H]23 [6f, Methyl 12N-(pyridin-4-ylmethyl)matrinate]	4.66 ± 0.35 µM	> 107	> 500 µM					
O=[N+]([O-])c1cccc(CN2C[C@@H]3CCCN4CCC[C@@H]([C@H]34)[C@H]2/C=C\CCO)c1 (as salt: hydrochloride) [compound 20, (Z)-12N-(3-nitrobenzyl)-Δ^βγ-matrinic crotonol dihydrochloride]				143 to 145 °C				
CC(C)(O)CCCC1C2CCCN3CCCC(CN1Cc1ccc(F)cc1F)C23.Cl.Cl (stereo not drawn) [10d, 1′,1′-Dimethyl-12N-(2,4-difluorobenzyl)matrinol dihydrochloride]	6.55 ± 2.69 µM	23.8	156 ± 37.9 µM					
COC(=O)CCC[C@@H]1[C@H]2CCCN3CCC[C@@H](CN1Cc1ccc(F)cc1)[C@@H]23 [compound 2]	2.09 ± 1.65 µM	131			274 ± 8.35 µM			
COc1ccc(CN2CC3CCCN4CCCC(C2/C=C\CCO)C34)cc1.Cl.Cl (stereo not drawn) [14a, (Z)-12N-(4-Methoxybenzyl)-Δ^βγ-matrinic crotonol dihydrochloride]	8.8 ± 2.15 µM	24.3	214 ± 95 µM					
C=Cc1ccc(CN2C[C@@H]3CCCN4CCC[C@@H]([C@H]34)[C@H]2CCCCO)cc1.Cl.Cl [7c, 12N-(4-Vinylbenzyl)matrinol dihydrochloride]	3.16 ± 0.51 µM	45.3	143 ± 32.3 µM					
CCCN1C[C@@H]2CCCN3CCC[C@@H]([C@H]23)[C@H]1CCCCO [3b]	16.4 ± 10.9 µM	> 30.5	> 500 µM					
COC(=O)CCC[C@@H]1[C@H]2CCCN3CCC[C@@H](CN1Cc1ccc(C)cc1)[C@@H]23 [6b, Methyl 12N-(4-methylbenzyl)matrinate]	1.73 ± 1.36 µM	76.8			133 ± 7.53 µM			
Cl.Cl.O=C(CN1CC2CCCN3CCCC(C1CCCCO)C23)Nc1ccc(C(F)(F)F)cc1 (stereo not drawn) [7i, 12N-(2-Oxo-2-((4-(trifluoromethyl)phenyl)amino)ethyl)matrinol dihydrochloride]	4.19 ± 1.44 µM	20.6	86.2 ± 4.33 µM					
OCCCC[C@@H]1[C@H]2CCCN3CCC[C@@H](CN1Cc1ccc(F)cc1)[C@@H]23 [3a]	2.99 ± 1.51 µM	95.3	285 ± 7.45 µM					
COC(=O)C/C=C\[C@@H]1[C@H]2CCCN3CCC[C@@H](CN1Cc1cccc([N+](=O)[O-])c1)[C@@H]23.Cl.Cl [13c, (Z)-Methyl 12N-(3-nitrobenzyl)-Δ^βγ-matrinic crotonate dihydrochloride]	40.4 ± 3.64 µM	10.0			402 ± 83.6 µM			
OCCCCC1C2CCCN3CCCC(CN1Cc1cccnc1)C23 (stereo not drawn) [7f, 12N-(Pyridin-3-ylmethyl)matrinol]	4.39 ± 3.01 µM	> 114	> 500 µM					
CCC[C@H](NC(=O)[C@@H]1[C@H]2CCC[C@H]2CN1C(=O)[C@@H](NC(=O)[C@@H](NC(=O)c1cnccn1)C1CCCCC1)C(C)(C)C)C(=O)C(=O)NC1CC1 [Tela, telaprevir, reference compound]		1950				0.02 ± 0.02 µM	47.6 ± 0.61 µM	

SMILES	EC50 (HCV; [2])	SI (ratio of CC50 to EC50) (HCV)	CC50 (Huh7.5 cells)	melting point	CC50 (Huh7.5 cells; [3])	EC50 (HCV; [4])	CC50 at 72 h [1]	CC50 at 72 h [1, 3]
COc1ccc(CN2C[C@@H]3CCCN4CCC[C@@H]([C@H]34)[C@H]2CCCC(C)(C)O)cc1.Cl.Cl [10a, 1′,1′-Dimethyl-12N-(4-methoxybenzyl)matrinol dihydrochloride]	11.7 ± 0.06 µM	12.0	> 140 µM					
CC(C)(O)CCC[C@@H]1[C@H]2CCCN3CCC[C@@H](CN1Cc1ccncc1)[C@@H]23 [10e, 1′,1′-Dimethyl-12N-(4-pyridylmethyl)matrinol]	80.4 µM		> 500 µM					
C=Cc1ccc(CN2C[C@@H]3CCCN4CCC[C@@H]([C@H]34)[C@H]2CCCC(=O)OC)cc1 [6c, Methyl 12N-(4-vinylbenzyl)matrinate]	1.61 ± 0.76 µM	50.4			81.2 ± 12.9 µM			
COC(=O)C/C=C\[C@@H]1[C@H]2CCCN3CCC[C@@H](CN1Cc1ccc(F)cc1)[C@@H]23.Cl.Cl [13b, (Z)-Methyl 12N-(4-fluorobenzyl)-Δ^βγ-matrinic crotonate dihydrochloride]	18.1 ± 6.49 µM	14.4	260 ± 84.8 µM					
CCC(O)(CC)CCC[C@@H]1[C@H]2CCCN3CCC[C@@H](CN1Cc1ccc(C)cc1)[C@@H]23.Cl.Cl [10c, 1′,1′-Diethyl-12N-(4-methylbenzyl)matrinol dihydrochloride]	< 0.23 µM	> 53.5	12.3 ± 4.23 µM					
COC(=O)CCCC1C2CCCN3CCCC(CN1Cc1ccc([N+](=O)[O-])cc1)C23.Cl.Cl (stereo not drawn) [6e, Methyl 12N-(4-nitrobenzyl)matrinate dihydrochloride]	14.2 ± 3.13 µM	16.5	235 ± 48.2 µM					
O=[N+]([O-])c1cccc(CN2C[C@@H]3CCCN4CCC[C@@H]([C@H]34)[C@H]2/C=C\CCO)c1 [compound 20, (Z)-12N-(3-nitrobenzyl)-Δ^βγ-matrinic crotonol dihydrochloride]		17.0				18.4 ± 1.64 µM		312 ± 31.1 µM
CCCCCCCCN1C[C@@H]2CCCN3CCC[C@@H]([C@H]23)[C@H]1CCCCO [3d]	0.8 ± 0.26 µM	22.3	17.8 ± 2.44 µM					
OCCCCC1C2CCCN3CCCC(CN1Cc1ccc(F)cc1F)C23 (stereo not drawn) [7d, 12N-(2,4-Difluorobenzyl)matrinol dihydrochloride]	< 2.06 µM				266 ± 9.47 µM			
CCCC[C@@H]1[C@H]2CCCN3CCC[C@@H](CN1Cc1ccc(OC)cc1)[C@@H]23 [compound 9, 12N-4-methoxybenzyl matrinic butane]		36.1		73 to 74 °C		1.16 ± 0.25 µM		41.9 ± 1.1 µM
Cl.Cl.OCCCC[C@@H]1[C@H]2CCCN3CCC[C@@H](CN1Cc1ccncc1)[C@@H]23 [7e, 12N-(Pyridin-4-ylmethyl)matrinol dihydrochloride]	9.03 ± 5.58 µM	> 55.4	> 500 µM					
Cc1ccc(CN2CC3CCCN4CCCC(C2CCCC(C)(C)O)C34)cc1.Cl.Cl (stereo not drawn) [10b, 1′,1′-Dimethyl-12N-(4-methylbenzyl)matrinol dihydrochloride]	0.82 ± 0.26 µM	67.9	55.7 ± 7.5 µM					
COC(=O)CCC[C@@H]1[C@H]2CCCN3CCC[C@@H](CN1Cc1ccc(OC)cc1)[C@@H]23.Cl.Cl [6a, Methyl 12N-(4-methoxybenzyl)matrinate dihydrochloride]	7.01 ± 1.51 µM	59.1	414 ± 7.34 µM					
COC(=O)CCC[C@@H]1[C@H]2CCCN3CCC[C@@H](CN1Cc1ccc(F)cc1F)[C@@H]23 [6d, Methyl 12N-(2,4-difluorobenzyl)matrinate]	1.69 ± 1.47 µM	154			261 ± 28.7 µM			
Cl.Cl.OCCCCC1C2CCCN3CCCC(CN1Cc1ccc(Cl)cn1)C23 (stereo not drawn) [7 g, 12N-(5-Chloropyridin-2-ylmethyl)matrinol dihydrochloride]	10.9 ± 5.59 µM	> 45.9	> 500 µM					
COC(=O)C/C=C\C1C2CCCN3CCCC(CN1Cc1ccc(OC)cc1)C23 (stereo not drawn) [13a, (Z)-Methyl 12N-(4-methoxybenzyl)-Δ^βγ-matrinic crotonate]	16.7 ± 4.71 µM	19.5	326 ± 21 µM					
